In ChEMBL document CHEMBL1201862, “PubChem BioAssay data set” (2004):
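Each compound was tested at five concentrations against cells in 96-well plates for 48 hours. Abbreviation: GI50, concentration required for 50% inhibition of growth.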 Active and inactive are the calls of the source. Cut-off read from the data, not from the text of the source: active = GI50 up to about 1.1 µM and inactive = higher.

What was measured:
Assay in all cases: DTP human tumour cell line panel, 48 h
SN12C = system: SN12C
OVCAR-4 = system: OVCAR-4
UACC-62 = system: UACC-62
SF-295 = system: SF-295
UO-31 = system: UO-31
SR = system: SR
SW-620 = system: SW-620
MDA-N = system: MDA-N
HCT-15 = system: HCT-15
MOLT-4 = system: MOLT-4
M14 = system: M14
SK-MEL-2 = system: SK-MEL-2
OVCAR-8 = system: OVCAR-8
OVCAR-5 = system: OVCAR-5
PC-3 = system: PC-3
ACHN = system: ACHN
BT-549 = system: BT-549
SNB-19 = system: SNB-19
A549 = system: A549
A498 = system: A498
RXF 393 = system: RXF 393
Hs-578T = system: Hs-578T
T47D = system: T47D
SF-268 = system: SF-268
OVCAR-3 = system: OVCAR-3
CAKI-1 = system: CAKI-1
KM12 = system: KM12
HCC 2998 = system: HCC 2998
TK-10 = system: TK-10
SK-MEL-28 = system: SK-MEL-28
U-251 = system: U-251
NCI-H522 = system: NCI-H522
HOP-62 = system: HOP-62
DU-145 = system: DU-145
NCI-H460 = system: NCI-H460
UACC-257 = system: UACC-257
SK-OV-3 = system: SK-OV-3
CCRF-CEM = system: CCRF-CEM
MDA-MB-231 = system: MDA-MB-231
IGROV-1 = system: IGROV-1
786-0 = system: 786-0
MDA-MB-435 = system: MDA-MB-435
COLO 205 = system: COLO 205
LOX IMVI = system: LOX IMVI
Malme-3M = system: Malme-3M
K562 = system: K562
RPMI-8226 = system: RPMI-8226
SNB-75 = system: SNB-75
NCI-H226 = system: NCI-H226
HOP-92 = system: HOP-92
SK-MEL-5 = system: SK-MEL-5
HT-29 = system: HT-29
NCI/ADR-RES = system: NCI/ADR-RES
MCF7 = system: MCF7
HCT-116 = system: HCT-116
EKVX = system: EKVX
HL-60 = system: HL-60
NCI-H23 = system: NCI-H23
SF-539 = system: SF-539

SMILES: N/C(=N\Nc1ccc(S(N)(=O)=O)cc1)c1cnccn1
- GI50 (SN12C): > 100 µM (inactive)
- GI50 (OVCAR-4): > 100 µM (inactive)
- GI50 (UACC-62): > 100 µM (inactive)
- GI50 (SF-295): > 100 µM (inactive)
- GI50 (UO-31): > 100 µM (inactive)
- GI50 (SR): > 100 µM (inactive)
- GI50 (SW-620): > 100 µM (inactive)
- GI50 (MDA-N): > 100 µM (inactive)
- GI50 (HCT-15): > 100 µM
- GI50 (MOLT-4): > 100 µM (inactive)
- GI50 (M14): > 100 µM (inactive)
- GI50 (SK-MEL-2): > 100 µM (inactive)
- GI50 (OVCAR-8): > 100 µM (inactive)
- GI50 (OVCAR-5): > 100 µM (inactive)
- GI50 (PC-3): > 100 µM (inactive)
- GI50 (ACHN): > 100 µM (inactive)
- GI50 (BT-549): > 100 µM (inactive)
- GI50 (SNB-19): > 100 µM (inactive)
- GI50 (A549): > 100 µM (inactive)
- GI50 (A498): > 100 µM (inactive)
- GI50 (RXF 393): > 100 µM (inactive)
- GI50 (Hs-578T): > 100 µM (inactive)
- GI50 (T47D): > 100 µM (inactive)
- GI50 (SF-268): > 100 µM (inactive)
- GI50 (OVCAR-3): > 100 µM (inactive)
- GI50 (CAKI-1): > 100 µM (inactive)
- GI50 (KM12): > 100 µM (inactive)
- GI50 (HCC 2998): > 100 µM (inactive)
- GI50 (TK-10): > 100 µM (inactive)
- GI50 (SK-MEL-28): > 100 µM (inactive)
- GI50 (U-251): > 100 µM (inactive)
- GI50 (NCI-H522): > 100 µM (inactive)
- GI50 (HOP-62): > 100 µM (inactive)
- GI50 (DU-145): > 100 µM (inactive)
- GI50 (NCI-H460): > 100 µM (inactive)
- GI50 (UACC-257): > 100 µM (inactive)
- GI50 (SK-OV-3): > 100 µM (inactive)
- GI50 (CCRF-CEM): > 100 µM (inactive)
- GI50 (MDA-MB-231): > 100 µM (inactive)
- GI50 (IGROV-1): > 100 µM (inactive)
- GI50 (786-0): > 100 µM (inactive)
- GI50 (MDA-MB-435): > 100 µM (inactive)
- GI50 (COLO 205): > 100 µM (inactive)
- GI50 (LOX IMVI): > 100 µM (inactive)
- GI50 (Malme-3M): > 100 µM (inactive)
- GI50 (K562): > 100 µM (inactive)
- GI50 (RPMI-8226): > 100 µM (inactive)
- GI50 (SNB-75): > 100 µM (inactive)
- GI50 (NCI-H226): > 100 µM (inactive)
- GI50 (HOP-92): > 100 µM (inactive)
- GI50 (SK-MEL-5): > 100 µM (inactive)
- GI50 (HT-29): > 100 µM (inactive)
- GI50 (NCI/ADR-RES): > 100 µM (inactive)
- GI50 (MCF7): > 100 µM (inactive)
- GI50 (HCT-116): > 100 µM (inactive)
- GI50 (EKVX): > 100 µM (inactive)
- GI50 (HL-60): > 100 µM (inactive)
- GI50 (NCI-H23): > 100 µM (inactive)

SMILES: C[C@@H](NC(=O)[C@@H]1C[C@]1(C)CO)c1cccc2ccccc12
- GI50 (SN12C): > 100 µM (inactive)
- GI50 (OVCAR-4): > 100 µM (inactive)
- GI50 (UACC-62): > 100 µM (inactive)
- GI50 (SF-295): > 100 µM (inactive)
- GI50 (UO-31): > 100 µM (inactive)
- GI50 (SR): > 100 µM (inactive)
- GI50 (SW-620): > 100 µM (inactive)
- GI50 (MDA-N): > 100 µM (inactive)
- GI50 (HCT-15): > 100 µM
- GI50 (MOLT-4): > 100 µM (inactive)
- GI50 (M14): > 100 µM (inactive)
- GI50 (SK-MEL-2): > 100 µM (inactive)
- GI50 (OVCAR-8): > 100 µM (inactive)
- GI50 (OVCAR-5): > 100 µM (inactive)
- GI50 (PC-3): > 100 µM (inactive)
- GI50 (ACHN): > 100 µM (inactive)
- GI50 (BT-549): > 100 µM (inactive)
- GI50 (SNB-19): > 100 µM (inactive)
- GI50 (A549): > 100 µM (inactive)
- GI50 (A498): > 100 µM (inactive)
- GI50 (RXF 393): > 100 µM (inactive)
- GI50 (Hs-578T): > 100 µM (inactive)
- GI50 (T47D): > 100 µM (inactive)
- GI50 (SF-268): > 100 µM (inactive)
- GI50 (OVCAR-3): > 100 µM (inactive)
- GI50 (CAKI-1): > 100 µM (inactive)
- GI50 (KM12): > 100 µM (inactive)
- GI50 (HCC 2998): > 100 µM (inactive)
- GI50 (TK-10): > 100 µM (inactive)
- GI50 (SK-MEL-28): > 100 µM (inactive)
- GI50 (U-251): > 100 µM (inactive)
- GI50 (HOP-62): > 100 µM (inactive)
- GI50 (DU-145): > 100 µM (inactive)
- GI50 (NCI-H460): > 100 µM (inactive)
- GI50 (UACC-257): > 100 µM (inactive)
- GI50 (SK-OV-3): > 100 µM (inactive)
- GI50 (CCRF-CEM): > 100 µM (inactive)
- GI50 (MDA-MB-231): > 100 µM (inactive)
- GI50 (IGROV-1): > 100 µM (inactive)
- GI50 (786-0): > 100 µM (inactive)
- GI50 (MDA-MB-435): > 100 µM (inactive)
- GI50 (COLO 205): > 100 µM (inactive)
- GI50 (Malme-3M): > 100 µM (inactive)
- GI50 (K562): > 100 µM (inactive)
- GI50 (RPMI-8226): > 100 µM (inactive)
- GI50 (SNB-75): > 100 µM (inactive)
- GI50 (NCI-H226): > 100 µM (inactive)
- GI50 (HOP-92): > 100 µM (inactive)
- GI50 (SK-MEL-5): > 100 µM (inactive)
- GI50 (HT-29): > 100 µM (inactive)
- GI50 (NCI/ADR-RES): > 100 µM (inactive)
- GI50 (MCF7): > 100 µM (inactive)
- GI50 (HCT-116): > 100 µM (inactive)
- GI50 (EKVX): > 100 µM (inactive)
- GI50 (NCI-H23): > 100 µM (inactive)

SMILES: O=C(N[C@@H](Cc1ccccc1)B(O)O)[C@H](Cc1cccc2ccccc12)NC(=O)N1CCOCC1
- GI50 (SN12C): 0.00371 µM (active)
- GI50 (OVCAR-4): 0.00454 µM (active)
- GI50 (UACC-62): 0.00248 µM (active)
- GI50 (SF-295): 0.00478 µM (active)
- GI50 (UO-31): 0.232 µM (active)
- GI50 (SR): 0.00131 µM (active)
- GI50 (SW-620): 0.00258 µM (active)
- GI50 (MDA-N): < 0.01 µM (active)
- GI50 (HCT-15): 0.155 µM
- GI50 (MOLT-4): 0.000371 µM (active)
- GI50 (M14): 0.00168 µM (active)
- GI50 (SK-MEL-2): 0.00125 µM (active)
- GI50 (OVCAR-8): 0.0254 µM (active)
- GI50 (OVCAR-5): 0.00281 µM (active)
- GI50 (PC-3): 0.00569 µM (active)
- GI50 (ACHN): 0.0105 µM (active)
- GI50 (BT-549): 0.000468 µM (active)
- GI50 (SNB-19): 0.00708 µM (active)
- GI50 (A549): 0.0262 µM (active)
- GI50 (A498): 0.00261 µM (active)
- GI50 (RXF 393): 0.00167 µM (active)
- GI50 (Hs-578T): 0.00175 µM (active)
- GI50 (T47D): 0.00104 µM (active)
- GI50 (SF-268): 0.00161 µM (active)
- GI50 (OVCAR-3): 0.000891 µM (active)
- GI50 (CAKI-1): 0.00555 µM (active)
- GI50 (KM12): 0.00185 µM (active)
- GI50 (HCC 2998): 0.00182 µM (active)
- GI50 (SF-539): 0.000265 µM (active)
- GI50 (TK-10): 0.00566 µM (active)
- GI50 (SK-MEL-28): 0.00106 µM (active)
- GI50 (U-251): 0.00423 µM (active)
- GI50 (NCI-H522): < 0.01 µM (active)
- GI50 (HOP-62): 0.00524 µM (active)
- GI50 (DU-145): 0.00627 µM (active)
- GI50 (NCI-H460): 0.0215 µM (active)
- GI50 (UACC-257): 0.00219 µM (active)
- GI50 (CCRF-CEM): 0.000186 µM (active)
- GI50 (MDA-MB-231): 0.00267 µM (active)
- GI50 (IGROV-1): 0.00618 µM (active)
- GI50 (786-0): 0.00451 µM (active)
- GI50 (MDA-MB-435): 0.000298 µM (active)
- GI50 (COLO 205): 0.00552 µM (active)
- GI50 (LOX IMVI): 0.00124 µM (active)
- GI50 (Malme-3M): 0.00187 µM (active)
- GI50 (K562): 0.00371 µM (active)
- GI50 (RPMI-8226): 0.000412 µM (active)
- GI50 (SNB-75): < 0.01 µM (active)
- GI50 (NCI-H226): 0.00029 µM (active)
- GI50 (HOP-92): 0.00233 µM (active)
- GI50 (SK-MEL-5): 0.00154 µM (active)
- GI50 (HT-29): 0.00239 µM (active)
- GI50 (NCI/ADR-RES): 0.938 µM (active)
- GI50 (MCF7): 0.000476 µM (active)
- GI50 (HCT-116): 0.000412 µM (active)
- GI50 (EKVX): 0.0267 µM (active)
- GI50 (HL-60): < 0.01 µM (active)
- GI50 (NCI-H23): 0.00172 µM (active)
